{"source": "patent US6875448B1", "about": "“Method of intracellular sustained-release of drug and preparations” (Chugai Seiyaku Kabushiki Kaisha, priority 1999, dated 2005)", "test_system": "Ltk− cells", "experiment": "Efficiency of introduction into cells with the aid of Ca2+ indicator", "assay_type": "cell-based, mouse", "settings": "intracellular calcium elevated by calcium ionophore", "protocol": "To the nanospheres (red fluorescent), calcium green-1 acetoxymethyl derivative was added as a fluorescent Ca^2+ indicator to give a concentration of 20 mM and mixed at room temperature for 1 hour so that it was adsorbed on the nanospheres. The unadsorbed calcium green-1 was removed by dialysis (Spectra/Por Membranes MWCO:12-14000) and buffer replacement was performed to prepare liposomes and fusogenic liposomes. 2×10^5 Ltk^−cells that had been seeded on 6-well plates one day before were washed with PBS(−) and exposed for 1 minute to the action of the calcium green-1 acetoxymethyl derivative, calcium green-1 adsorbed nanospheres, liposomes or fusogenic liposomes which were all conditioned to have the same fluorescence intensity of 2700 (Ex. 488 nm; Em, 534 nm). Thereafter, the cells were washed with PBS(−), cultured in an Eagle's MEM medium for 1 hour, stripped from the medium with trypsin and subjected to the measurement of fluorescence intensity (Ex, 488 nm; Em, 534 nm). Thereafter, a calcium ionophore/DMSO solution was added to give a concentration of 0.1 mg/mL and fluorescence intensity was measured at Ex=488 nm and Em=534 nm."}
{"substance": "calcium green-1 acetoxymethyl derivative", "values": [{"measurement": "fluorescence of calcium green-1 in cells", "value": "barely detectable"}]}
